Results as given in patent publication US5840696A (priority 1997, dated 1998).

Experiments:
[1] = system: conscious and pentobarbital-anesthetized rats; assay: influence of pentobarbital anesthesia on renal and vascular effects of nociceptin; format: in vivo, rat
Text: N=number of rats. *≤0.05 significant when compared using ANOVA.
N=number of animals. *≤0.05 when ANOVA used statistical comparison.

pulmonary vascular bed = pulmonary vascular bed of the intact-chest anesthetized rat under elevated pulmonary vasomotor tone; format: in vivo; settings: intralobar arterial bolus injections
Protocol: Since pulmonary blood flow and left atrial pressure were held constant, the decreases in pulmonary artery pressure directly reflect decreases in pulmonary vascular resistance. N=number of animals.
Male Charles River rats (260-340 go) were anesthetized with an intraperitoneal injection of pentobarbital sodium (30 mg/kg), and allowed to breath air enriched with oxygen through an endotracheal tube inserted by tracheotomy. The anesthetized animals were strapped in a supine position to a fluoroscopic table, and catheters were inserted in femoral blood vessels. A specially designed triple lumen balloon perfusion catheter was constructed (Nu-Med, Hopkinton, N.Y.). This catheter is 145 mm in length, […]. and with specially curved tip to facilitate passage through the right heart and main pulmonary artery into the artery supplying the right lower lung lobe. At the distal tip of the catheter is a pressure port through which a 0.25 mm soft tip coronary artery angioplasty guide wire is inserted. […] Mean pressure in the right lower lobe artery and the aorta were continuously recorded. […] Since this catheter perfuses approximately one-sixth of the lung, as determined by measuring lung weight, this perfusion rate approximate physiologic flow for that lung area, i.e. at least 15-20% of the 75-85 ml/min normal total pulmonary blood flow of the rat. […]

[2] = system: conscious Sprague-Dawley rats; assay: i.v. bolus administration of 30 μg nociceptin in conscious rats; format: in vivo, rat; settings: i.v. bolus 30 μg
Protocol: Abbreviations are HR, heart rate; MAP, mean arterial pressure; V, urine flow rate; and UNa V, urinary sodium excretion. Statistical significance within each group was determined by a repeated measures analysis of variance followed by a Bonferroni multiple comparisons test; asterisks (a, b, or c) denote a significant change (p<0.05) from control within each group.
Anesthetized male Sprague-Dawley rats (275-300 g, Sprague-Dawley, Inc., Indianapolis, Ind.) were implanted with chronic arterial and venous cannulas and a bladder catheter in accordance with previously published methods (10, 12). For experiments in which drugs were administered i.c.v., a stainless steel cannula was stereotaxically implanted into the right lateral ventricle of rats under anesthesia at least 5-7 days prior to experimentation (11). On the morning of the study rats were placed in a rat holder which permits forward and backward movement and allows for collection of urine from the bladder catheter. Conscious rats were then infused i.v. with isotonic saline (50 μl/min) for the duration of the experiment. The arterial cannulae was then flushed and attached to a pressure transducer (Statham P23Db) and the urinary bladder catheter led to a collection beaker. […]

mice = settings: administration to mice, literature (4,5); cited from earlier work
[3] = system: isolated feline renal, femoral, mesenteric and carotid arterial rings; assay: isolated feline arterial rings (with endothelium) precontracted with phenylephrine
Protocol: Additional studies were performed in vitro to determine the contribution of changes in regional hemodynamics in the systemic vasodilator response to nociceptin.

[4] = system: intact-chest, anesthetized rats; assay: bolus injection into right atrium versus left atrium, systemic arterial pressure (first-pass lung transit); format: in vivo, rat; settings: inferred from right versus left atrial injection
Text: Such a hemodynamic profile would be particularly desireable in patients experiencing congestive heart failure since pulmonary vasodilation would be expected to enhance resolution of pulmonary edema and systemic vasodilation (i.e. afterload reduction) would be expected to enhance myocardial performance.

[5] = system: forskolin-stimulated cAMP production; settings: literature (4,5); cited from earlier work
rat kidney = assay: site of infusion (right renal artery, suprarenal and infrarenal aorta, intravenous) and urine flow rate; format: in vivo; settings: direct right renal arterial administration
[6] = system: conscious Sprague-Dawley rats; assay: intravenous infusion of nociceptin in conscious chronically instrumented rats: cardiovascular and renal responses; format: in vivo, rat; settings: i.v. infusion 20 μg/kg/min
Protocol: Anesthetized male Sprague-Dawley rats (275-300 g, Sprague-Dawley, Inc., Indianapolis, Ind.) were implanted with chronic arterial and venous cannulas and a bladder catheter in accordance with previously published methods (10, 12). For experiments in which drugs were administered i.c.v., a stainless steel cannula was stereotaxically implanted into the right lateral ventricle of rats under anesthesia at least 5-7 days prior to experimentation (11). On the morning of the study rats were placed in a rat holder which permits forward and backward movement and allows for collection of urine from the bladder catheter. Conscious rats were then infused i.v. with isotonic saline (50 μl/min) for the duration of the experiment. The arterial cannulae was then flushed and attached to a pressure transducer (Statham P23Db) and the urinary bladder catheter led to a collection beaker. After equilibration and stabilization of urine flow rate and urinary sodium excretion (approximately 2-3 hours) the experimental protocol described in each figure legend commenced. Intravenous and i.c.v. stock solutions of nociceptin and nor-binaltorphimine were prepared fresh in isotonic saline vehicle. […] Animal experimentation and care procedures were in accordance with the National Institutes of Health guidelines for the care and use of animals.
Statistical significance was determined by a repeated measure analysis of variance followed by a Bonferroni multiple comparisons test; asterisks denote a significant difference (p<0.05) from the respective group control.

Compound: CC(C)C[C@H](NC(=O)[C@H](CCCCN)NC(=O)[C@H](CCCN=C(N)N)NC(=O)[C@H](C)NC(=O)[C@H](CO)NC(=O)[C@H](CCCCN)NC(=O)[C@H](CCCN=C(N)N)NC(=O)[C@H](C)NC(=O)CNC(=O)[C@@H](NC(=O)[C@H](Cc1ccccc1)NC(=O)CNC(=O)CNC(=O)[C@@H](N)Cc1ccccc1)[C@@H](C)O)C(=O)N[C@@H](C)C(=O)N[C@@H](CC(N)=O)C(=O)N[C@@H](CCC(N)=O)C(=O)O [nociceptin]
- systemic vasodepressor activity, anesthetized versus conscious rats ([1]; bolus i.v. injection): greater systemic vasodepressor activity
- ability to increase urinary flow rate (V) under anesthesia ([1]; rats anesthetized with sodium pentobarbital, i.v. infusion): inhibited
- pulmonary vasodilator response after L-NAME and L-NIO (pulmonary vascular bed): inhibit
- effect on the pulmonary vascular bed (pulmonary vascular bed; tone elevated with U46619): dilates the pulmonary vascular bed
- cardiovascular and renal parameters [2]: did not alter any cardiovascular or renal parameter
- response to painful stimuli (mice): hypersensitivity to painful stimuli
- relaxation of arterial rings [3]: ability to relax
- first-pass uptake or metabolism in the lung [4]: does not undergo significant first-pass uptake or metabolism
- forskolin-stimulated cAMP production [5]: inhibits forskolin-stimulated cAMP production
- left or right ureteral flow rate (rat kidney): did not increase
- behavioral or sedative effects [6]: did not produce any behavioral or sedative effects
- duration of renal responses [6]: approximately 70 min
- heart rate [6]: did not alter heart rate
- time of peak changes in renal responses after start of infusion [6]: approximately 40 min
- urinary sodium excretion ([6]; conscious rats): decrease
- urine flow rate ([6]; conscious rats): profound increase
- mean arterial pressure ([6]; sustained throughout infusion): slight, but statistically significant decrease
